Source: patent US20070036843A1, “Non-ionic non-aqueous vehicles for topical and oral administration of carrier-complexed active agents” (Collegium Pharmaceutical, Inc., priority 2005, published 2007)

Experiment: Release of albuterol from resinate in various vehicles (membrane-bottomed insert over wells of aqueous solution, simulating topical application to skin)
Assay type: physicochemical
Conditions: room temperature, sampled 0.5, 1, 2 and 4 hours
Description: Albuterol was detected by HPLC on a Waters “Resolve” 5 micron spherical C18 resin column, with a mobile phase of 70% buffer and 30% methanol. Buffer was 4.4 g 1-heptane sulfonic acid in 100 g DI water, adjusted to pH 3.2±0.1 with glacial acetic acid. Albuterol extraction solvent was 10% v/v 0.5 M Na Acetate in ethanol. A stock solution of 0.5 mg albuterol/ml extraction buffer was diluted with 25 volumes of “diluent” (30:70 methanol:DI water, v:v) at the time of use. Samples were extracted to determine albuterol content by transferring 200 mg albuterol resin to a 250 ml flask, using extraction solvent; bringing the volume to about 220 ml of extraction solvent; shaking overnight at room temperature; adding extraction solvent to 250 ml; filtering an aliquot; and diluting filtered solution with 24 volumes of diluent. This solution was analyzed by HPLC, and the amount was determined by comparison with a chromatogram of the standard.
A system was developed to simulate the effects of topical application of a resin-bound drug in a vehicle to skin. […]
The experimental design allowed the pores of the membrane to fill with the aqueous solution. […] Wells were sampled at various times and the fluid was analyzed for albuterol. […]
7.5 g phosphate buffer (pH 6.8; 0.05 M) was added to each well. […] The inserts were removed, and the fluid in the wells (12 in all) was analyzed for albuterol by HPLC. […]

SMILES: CC(C)(C)NCC(O)c1ccc(O)c(CO)c1 (centres unmarked) [albuterol, Albuterol]
- Release of albuterol (albuterol resinate directly in ionic aqueous solution (phosphate buffer pH 6.8, 0.05 M), no vehicle, compared with NINA vehicles): fastest
- Release of albuterol (albuterol resinate in hydrophobic castor oil/colloidal silica (2.5%) vehicle without surfactant, phosphate buffer pH 6.8 in well): not detectable
